{"source": "paper PMC4076632", "about": "“VAV3 mediates resistance to breast cancer endocrine therapy” (Breast Cancer Research : BCR, 2014)", "molecular_target": "T1, estrogen receptor α (ERα) (Homo sapiens, UniProt P03372)", "T1 construct": "gene ESR1", "T1 sequence (P03372 1-595)": "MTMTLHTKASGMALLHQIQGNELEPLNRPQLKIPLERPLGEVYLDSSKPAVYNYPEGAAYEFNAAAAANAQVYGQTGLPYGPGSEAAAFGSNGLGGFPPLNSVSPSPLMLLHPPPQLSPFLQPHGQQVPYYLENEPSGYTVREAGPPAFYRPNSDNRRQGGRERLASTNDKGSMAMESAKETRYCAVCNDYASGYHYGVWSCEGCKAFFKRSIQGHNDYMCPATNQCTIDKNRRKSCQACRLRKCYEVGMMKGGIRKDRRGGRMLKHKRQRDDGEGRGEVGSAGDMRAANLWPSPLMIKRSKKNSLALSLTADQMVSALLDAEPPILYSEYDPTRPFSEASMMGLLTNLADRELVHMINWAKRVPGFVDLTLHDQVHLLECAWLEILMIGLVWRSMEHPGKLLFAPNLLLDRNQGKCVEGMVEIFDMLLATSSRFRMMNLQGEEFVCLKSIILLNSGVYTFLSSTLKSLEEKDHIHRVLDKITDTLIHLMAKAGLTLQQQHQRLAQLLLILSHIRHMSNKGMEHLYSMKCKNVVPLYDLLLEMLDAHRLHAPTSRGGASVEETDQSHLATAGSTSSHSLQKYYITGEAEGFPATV", "assay": "ERα agonist fluoligand competition assay (Cerep) with fluorescein-labeled estradiol", "type": "binding"}
{"compound": "OCc1ccc(-c2nn(Cc3ccccc3)c3ccccc23)o1", "note": "[YC-1, 3-(5′-hydroxymethyl-2′-furyl)-1-benzylindazole]", "values": [{"measurement": "Ki", "value": 26, "unit": "µM"}]}
